One block for each molecule: values may come before it.
Key:
HIV = system: HIV; parameters: method as in earlier work; conditions: cited from earlier work
clinical [1] = conditions: human, in vivo; for AUC(0-t): AUC0-24 PBMC
[2] = human, in vivo
clinical [3] = conditions: human, in vivo, AUC0-24 Plasma

SMILES: CC(C)CN(C[C@@H](O)[C@H](Cc1ccccc1)NC(=O)O[C@H]1CO[C@H]2OCC[C@H]21)S(=O)(=O)c1ccc(N)cc1 [DRV, darunavir]
90% effective concentration (EC90) (HIV): 0.2 µg/mL | AUC(0-t) (clinical [1]): 17500 ng·h/mL

AUC(0-t) (clinical [1]): 14900 ng·h/mL | Kp (clinical [1]; Ctrough in PBMC relative to plasma, throughout the protocol): ~0.25 | Kp (clinical [1]; PBMC/Plasma Ctrough ratio): 0.19 | AUC0-24 PBMC [2]: 12807 ng·h/mL | AUC(0-t) (clinical [3]): 31600 ng·h/mL | AUC0-24 Plasma (human, in vivo): 30967 ng·h/mL
SMILES: C[C@@H]1CCO[C@H]2Cn3cc(C(=O)NCc4ccc(F)cc4F)c(=O)c(O)c3C(=O)N12 [DTG, dolutegravir]

SMILES: CO[C@H]1/C=C/O[C@@]2(C)Oc3c(C)c(O)c4c(O)c(c(/C=N/N5CCN(C)CC5)c(O)c4c3C2=O)NC(=O)/C(C)=C\C=C\[C@H](C)[C@H](O)[C@@H](C)[C@@H](O)[C@@H](C)[C@H](OC(C)=O)[C@@H]1C [RIF, rifampicin]
Cmax Plasma (median, DRV/RTV 1600/200 QD + DTG + RIF (n = 4)): 11240 ng/mL

SMILES: CC(C)c1nc(CN(C)C(=O)N[C@H](C(=O)N[C@@H](Cc2ccccc2)C[C@H](O)[C@H](Cc2ccccc2)NC(=O)OCc2cncs2)C(C)C)cs1 [RTV, ritonavir]
AUC(0-t) (clinical [1]): 9830 ng·h/mL | AUC(0-t) (clinical [3]): 6070 ng·h/mL

From paper PMC9211429 (Antimicrobial Agents and Chemotherapy, 2022)
